Patent publication EP4122499A1, “FIBROBLAST ACTIVATION PROTEIN INHIBITORS AND USE THEREOF” (3B Pharmaceuticals GmbH, priority 2021, dated 2023)

Assays:
[1] = molecular target: T1, Recombinant human DPP4 (Homo sapiens, UniProt P27487); assay: DPP4 protease activity assay; assay type: biochemical; conditions: 20 µM GP-AMC substrate; for IC50: read-out: pIC50 (DPP4) (converted)
T1 construct: purchased R&D systems 9168-SE
Method: (§1) The PREP activity assay was performed using the FACS buffer (PBS including 1% FBS, Sigma-Aldrich, Cat# D8537). […] The DPP4 activity assay was performed in DPP assay buffer (25 mM Tris, pH 8.0).
(§2) Four parameter logistic (4PL) curve fitting and pIC50 calculations were performed using ActivityBase software.

[2] = molecular target: T2, recombinant human PREP (Homo sapiens, UniProt P48147); assay: PREP protease activity assay; assay type: biochemical; conditions: 50 µM Z-GP-AMC substrate
T2 construct: purchased R&D systems 4308-SE
T2 sequence (P48147 1-710): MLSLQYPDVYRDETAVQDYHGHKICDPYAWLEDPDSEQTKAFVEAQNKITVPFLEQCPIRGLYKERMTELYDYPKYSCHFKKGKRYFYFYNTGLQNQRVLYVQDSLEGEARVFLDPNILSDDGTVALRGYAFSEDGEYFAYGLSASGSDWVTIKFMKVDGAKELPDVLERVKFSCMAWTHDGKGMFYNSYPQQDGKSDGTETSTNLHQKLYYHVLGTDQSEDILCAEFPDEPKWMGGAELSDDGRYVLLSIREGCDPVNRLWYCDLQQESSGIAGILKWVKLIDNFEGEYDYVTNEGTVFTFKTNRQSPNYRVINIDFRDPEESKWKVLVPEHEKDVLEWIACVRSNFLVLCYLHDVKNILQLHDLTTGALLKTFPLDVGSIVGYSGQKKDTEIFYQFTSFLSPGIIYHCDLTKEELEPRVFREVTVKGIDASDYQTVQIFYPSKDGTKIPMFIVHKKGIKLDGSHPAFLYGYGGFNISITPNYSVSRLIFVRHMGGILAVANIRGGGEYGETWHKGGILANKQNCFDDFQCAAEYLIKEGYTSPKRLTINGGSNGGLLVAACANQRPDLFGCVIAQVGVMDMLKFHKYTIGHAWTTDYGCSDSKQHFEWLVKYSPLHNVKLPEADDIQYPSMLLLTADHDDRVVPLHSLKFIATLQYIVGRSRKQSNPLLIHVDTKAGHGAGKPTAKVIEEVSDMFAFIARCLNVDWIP
Method: as §1, §2

[3] = molecular target: T3, FAP-expressing human WI-38 fibroblasts (Homo sapiens, UniProt Q12884); assay: Competitive FACS binding assay (displacement of Cy5-labeled FAP inhibitor 3BP-2935); conditions: 3 nM Cy5-labeled 3BP-2935, 4°C, 1 hour
T3 construct: FAP-expressing human WI-38 fibroblasts (ECACC 90020107) were cultured in EMEM; host or cells: WI-38 human fibroblasts
T3 sequence (Q12884 1-760): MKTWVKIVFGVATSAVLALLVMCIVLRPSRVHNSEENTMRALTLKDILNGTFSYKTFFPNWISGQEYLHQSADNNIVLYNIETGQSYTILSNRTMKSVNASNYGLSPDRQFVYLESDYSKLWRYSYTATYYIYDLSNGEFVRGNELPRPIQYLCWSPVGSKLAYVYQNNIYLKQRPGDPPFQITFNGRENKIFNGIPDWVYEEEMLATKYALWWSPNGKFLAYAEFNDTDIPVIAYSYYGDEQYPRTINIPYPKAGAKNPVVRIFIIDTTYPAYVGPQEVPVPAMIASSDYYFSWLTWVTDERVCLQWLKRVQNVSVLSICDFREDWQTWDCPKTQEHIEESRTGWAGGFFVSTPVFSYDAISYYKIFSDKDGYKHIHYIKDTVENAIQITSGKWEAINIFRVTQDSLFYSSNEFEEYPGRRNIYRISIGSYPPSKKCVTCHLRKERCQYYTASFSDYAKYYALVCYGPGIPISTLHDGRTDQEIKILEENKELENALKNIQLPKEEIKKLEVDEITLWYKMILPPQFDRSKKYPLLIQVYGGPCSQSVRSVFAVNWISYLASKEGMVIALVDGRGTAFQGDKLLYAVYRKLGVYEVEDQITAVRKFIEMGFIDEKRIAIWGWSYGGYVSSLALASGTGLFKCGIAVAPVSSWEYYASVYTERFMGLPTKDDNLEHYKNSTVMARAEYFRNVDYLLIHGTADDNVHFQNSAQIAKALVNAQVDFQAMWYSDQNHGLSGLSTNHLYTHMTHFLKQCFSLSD
Method: In order to determine binding of compounds according to the present invention to FAP-expressing cells, a competitive FACS binding assay was established.
Cells were diluted in FACS buffer to a final concentration of 100.000 cells per ml and 200 µl of the cell suspension are transferred to a u-shaped non-binding 96-well plate (Greiner).
Cell were washed twice with FACS buffer (see above) and resuspended in 200 µl FACS buffer. Cells were analyzed in an Attune NxT flow cytometer (Thermo Fisher Scientific). Median fluorescence intensities (Cy5 channel) was calculated by Attune NxT software and plotted against test compound concentrations. Four parameter logistic (4PL) curve fitting and pIC50 calculations were performed using ActivityBase software.

[4] = molecular target: T4, Human recombinant FAP (Homo sapiens, UniProt Q12884); assay: FRET-based FAP protease activity assay (human); assay type: biochemical; parameters: purchased R&D systems 3715-SE; conditions: FRET-peptide substrate, 37°C; for IC50: read-out: pIC50 (Activity) (converted)
T4 sequence (Q12884 1-760): T3 sequence (Q12884 1-760)
Method: (§3) In order to determine the inhibitory activity a FRET-based FAP protease activity assay was established.
25 µL of a 30 µM substrate solution, diluted in assay buffer, was added. […] Four parameter logistic (4PL) curve fitting and pIC50 calculations were performed using ActivityBase software (IDBS).

[5] = molecular target: T4, Human recombinant FAP; assay: Surface plasmon resonance assay (Biacore T200, single cycle kinetics); assay type: binding; conditions: SPR, 25°C
Method: Surface plasmon resonance studies were performed using a Biacore™ T200 SPR system (Cytiva, formerly GE Healthcare). Briefly, polarized light is directed towards a gold-labeled sensor surface, and minimum intensity reflected light is detected. The angle of reflected light changes as molecules bind and dissociate. […] Test compounds are contacted with the loaded surface, and a real-time interaction profile with the FAP ligand is recorded in a sensorgram. In real-time, the association and dissociation of a binding interaction is measured, enabling calculation of association and dissociation rate constants and the corresponding affinity constants. Importantly, a background response is generated due to the difference in the refractive indices of the running and sample buffers, as well as unspecific binding of the test compounds to the flow cell surface. This background is measured and subtracted by running the sample on a control flow cell coated with the same density of capture antibody in the absence of immobilized FAP. Furthermore, baseline drift correction of the binding data is performed, which is caused by slow dissociation of the captured FAP from the immobilized antibody. This drift is measured by injecting running buffer through a flow cell with the antibody and FAP immobilized to the sensor surface.
Biacore™ CM5 sensor chips were used. […] A 150 µL aliquot was transferred into plastic vials and placed into the sample rack of the Biacore™ T200 instrument. Amine Coupling Kit Reagent solutions were transferred into plastic vials and placed into the sample rack: 90 µL of 0.4 M 1-ethyl-3-(3-dimethylaminopropyl)carbodiimide (EDC), and 90 µL of 0.1 M N-hydroxysuccinimide (NHS). A 130 µL aliquot of 1 M ethanolamine-HCl, pH 8.5, was transferred into plastic vials and placed into the sample rack. The Biacore™ liquid system was set-up as follows: Separate bottles containing distilled water (1 L), Running Buffer (500 mL), as well as an empty bottle for waste were placed onto the buffer tray. A preinstalled program for immobilization was used, with an immobilization level of 7000 RU. Immobilization was performed at 25°C. The immobilization procedure of anti-FAP antibodies was performed, as described in the Table 5. Table 5: Immobilization protocol for anti-FAP antibodies used on the CM5 sensor chip.
Human recombinant FAP was diluted in Running Buffer to a final concentration of 20 µg/mL. A 100 µL aliquot of human FAP-Working-Solution was transferred into plastic vials and placed into a sample rack. A 0.5 mM Compound-Stock-Solution was prepared by dissolving each compound in DMSO. For each test compound, Compound-Stock-Solutions were diluted in Running Buffer (HBST) at 500 nM and further diluted with HBST-DMSO Buffer (0.1% DMSO). SPR binding analyses for binary complexes were performed in SCK mode at 25°C. Following three SCK measurements, a baseline drift was assessed by injecting running buffer through a flow cell, with the antibody and FAP immobilized to the sensor surface. Table 6: Protocol for assessing the binding kinetics.
For each test compound, SPR raw data in the form of resonance units (RU) were plotted as sensorgrams using the Biacore™ T200 control software. The signal from the blank sensorgram was subtracted from that of the test compound sensorgram (blank corrected). The blank corrected sensorgram was corrected for baseline drift by subtracting the sensorgram of a SCK run without the test compound (running buffer only). The association rate (kon), dissociation rate (koff), dissociation constant (KD), and t1/2 were calculated from Blank-normalized SPR data using the 1:1 Langmuir binding model from the Biacore™ T200 evaluation software. Raw data and fit results were imported as text files in IDBS. The pKD value (negative decadic logarithm of dissociation constant) was calculated in the IDBS excel template.

[6] = molecular target: T5, Recombinant mouse FAP (Mus musculus, UniProt P97321); assay: FRET-based FAP protease activity assay (mouse); assay type: biochemical; conditions: FRET-peptide substrate, 37°C
T5 construct: purchased R&D systems 8647-SE
T5 sequence (P97321 1-761): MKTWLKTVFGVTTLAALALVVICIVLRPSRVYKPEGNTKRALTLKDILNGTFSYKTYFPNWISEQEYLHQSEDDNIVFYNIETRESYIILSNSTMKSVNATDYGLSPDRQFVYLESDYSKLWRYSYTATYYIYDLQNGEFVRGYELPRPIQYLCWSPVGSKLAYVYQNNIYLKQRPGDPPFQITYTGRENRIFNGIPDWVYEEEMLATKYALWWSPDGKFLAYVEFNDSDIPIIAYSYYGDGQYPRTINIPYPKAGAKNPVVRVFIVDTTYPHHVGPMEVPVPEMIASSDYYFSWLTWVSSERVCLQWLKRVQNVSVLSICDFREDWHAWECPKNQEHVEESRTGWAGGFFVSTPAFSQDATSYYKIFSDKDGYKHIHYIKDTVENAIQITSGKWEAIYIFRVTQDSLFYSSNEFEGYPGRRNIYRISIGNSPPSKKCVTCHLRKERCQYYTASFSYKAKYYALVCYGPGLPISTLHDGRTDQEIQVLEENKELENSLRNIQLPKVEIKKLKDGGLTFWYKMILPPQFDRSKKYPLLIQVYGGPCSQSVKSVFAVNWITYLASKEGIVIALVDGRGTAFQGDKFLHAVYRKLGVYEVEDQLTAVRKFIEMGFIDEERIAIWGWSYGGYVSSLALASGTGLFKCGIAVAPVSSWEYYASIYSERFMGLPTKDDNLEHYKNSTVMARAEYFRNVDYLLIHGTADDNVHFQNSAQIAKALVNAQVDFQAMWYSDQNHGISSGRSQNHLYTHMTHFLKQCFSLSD
Method: as §3
25 µL of a 30 µM substrate solution, diluted in assay buffer, was added. […] Four parameter logistic (4PL) curve fitting and pIC50 calculations were performed using ActivityBase software.

[7] = molecular target: T6, HEK-FAP cells (Homo sapiens, UniProt Q12884); assay: LigandTracer assay with 111In-labeled compounds; assay type: binding; conditions: 111In-labeled compound
T6 construct: expressed in transfected cells; host or cells: HEK293
T6 sequence (Q12884 1-760): T3 sequence (Q12884 1-760)
Method: HEK293 cells (human embryonic kidney cells) were engineered to express the human FAP. […] Cell concentrations were adjusted to 3 x 10^5 mL^-1, and 3.000 µL of the suspension was dispensed into a poly-lysine-coated, clear cell dish (10cm). Approximately 24 hours after re-seeding, the medium was replaced by assay medium (Ham's medium with 20 mM HEPES) containing 1 % FCS. The dish was placed in the LigandTracer® device and a baseline measurement was obtained using the LigandTracer® Control software (version 2.4). […] To determine the dissociation rate (kd) the cells were washed and subsequently incubated with fresh assay medium for several hours. […] Table 14 Results of the LigandTracer® assay

T1 sequence (P27487 whole entry): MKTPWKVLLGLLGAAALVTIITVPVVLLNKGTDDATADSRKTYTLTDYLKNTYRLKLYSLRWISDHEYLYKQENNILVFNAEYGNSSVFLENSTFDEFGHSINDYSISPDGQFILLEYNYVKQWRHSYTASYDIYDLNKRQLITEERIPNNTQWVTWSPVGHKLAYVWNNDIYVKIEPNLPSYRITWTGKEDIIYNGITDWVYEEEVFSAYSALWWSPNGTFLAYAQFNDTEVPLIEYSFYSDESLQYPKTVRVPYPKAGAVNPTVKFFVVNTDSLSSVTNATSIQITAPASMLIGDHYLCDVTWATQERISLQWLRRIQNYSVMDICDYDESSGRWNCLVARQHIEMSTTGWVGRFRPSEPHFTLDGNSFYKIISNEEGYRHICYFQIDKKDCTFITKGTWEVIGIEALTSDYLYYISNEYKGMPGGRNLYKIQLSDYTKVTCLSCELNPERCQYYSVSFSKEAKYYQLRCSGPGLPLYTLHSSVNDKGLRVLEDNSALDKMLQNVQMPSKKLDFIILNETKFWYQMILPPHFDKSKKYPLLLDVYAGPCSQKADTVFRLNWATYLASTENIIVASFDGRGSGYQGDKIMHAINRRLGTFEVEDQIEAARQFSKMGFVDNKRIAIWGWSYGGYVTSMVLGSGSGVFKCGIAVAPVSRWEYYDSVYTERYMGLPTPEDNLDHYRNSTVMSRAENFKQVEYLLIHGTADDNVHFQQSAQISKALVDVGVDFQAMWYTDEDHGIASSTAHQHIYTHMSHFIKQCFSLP

| Structure (SMILES) | IC50 [1] [nM] | IC50 [2] [nM] | IC50 [3] [nM] | IC50 [4] [nM] | further results |
| --- | --- | --- | --- | --- | --- |
| N#C[C@@H]1CCCN1C(=O)CNC(=O)c1ccnc2ccc(-c3cccc(C(=O)O)c3)cc12 | > 1000 | > 1000 | 3.16 | 1.58 | – |
| CS(=O)(=O)c1ccc(-c2ccc3c(C(=O)NCC(=O)N4CC(F)(F)C[C@H]4C#N)ccnc3c2)cc1 | – | – | – | – | pIC50 (DPP4) [1]: <6; pKD (Biacore) ([5]; 1:1 Langmuir binding model): 10; HL [min] (Biacore) ([5]; half-life): 37 min; pIC50 (PREP) [2]: <6; pIC50 (FACS) [3]: 8.5; pIC50 (Activity) [4]: 9.1 |
| N#C[C@@H]1CCCN1C(=O)CNC(=O)c1ccnc2cc(-c3cccc(C(=O)O)c3)ccc12 | > 1000 | > 1000 | 2.51 | 1.58 | – |
| N#C[C@@H]1CCCN1C(=O)CNC(=O)c1ccnc2cc(-c3ccc(C(=O)O)cc3)ccc12 | > 1000 | > 1000 | 3.98 | 2 | – |
| N#C[C@@H]1CCCN1C(=O)CNC(=O)c1cc[n+]([O-])c2ccccc12 | – | – | – | – | pIC50 (DPP4) [1]: <6; pIC50 (mouseFAP) [6]: 7.5; pIC50 (PREP) [2]: 6.3; pIC50 (FACS) [3]: 7.1; pIC50 (Activity) [4]: 7.6 |
| Cc1nc(C(=O)[C@@H]2CCCN2C(=O)CNC(=O)c2ccnc3ccccc23)no1 | – | 1.26 | 251 | 79.4 | IC50 ([6]; read-out: pIC50 (mouseFAP) (converted)): 126 nM |
| N#C[C@@H]1CC(F)(F)CN1C(=O)CNC(=O)c1ccnc2ccc(OCCCN3CCN(C(=O)CN4CCN(CC(=O)O)CCN(CC(=O)O)CCN(CC(=O)O)CC4)CC3)cc12 [Compound 3BP-2929, reference compound] | – | – | – | – | HL [7]: 276 ± 142 min |
